Experimental data taken from article PMC6468028 (Protein & Cell, 2018).

Columns and labels:
[1] = biological target: T1, L-fucokinase/GDP-fucose pyrophosphorylase (FKP); BfFKP (Bacteroides fragilis, UniProt Q58T34); experiment: NADH coupled assay of fucokinase activity; format: biochemical; details: co-substrate ATP; C-terminal fucokinase domain
T1 construct: full-length wild type, overexpressed and purified; about 105 kDa protomer, tetramer; model covers residues 71-398 and 467-949

[2] = biological target: the molecule itself; experiment: SEC; purified FKP on size exclusion chromatography; eluted at the volume of the 440 kDa molecular weight marker

| Molecule | NADH coupled assay of fucokinase activity [1] | stoichiometry N [2] |
| --- | --- | --- |
| C[C@@H]1OC(O)[C@@H](O)[C@H](O)[C@@H]1O (stereo partly drawn) [L-fucose, 6-deoxy-L-galactose] | We applied the NADH coupled assay and the pyrophosphate assay to characterize the fucokinase activity |  |
| L-fucokinase/GDP-fucose pyrophosphorylase (FKP) from Bacteroides fragilis 9343, full-length wild type (enzyme, UniProt Q58T34 1-949, looked up) MQKLLSLPSNLVQSFHELERVNRTDWFCTSDPVGKKLGSGGGTSWLLEECYNEYSDGATFGEWLEKEKRILLHAGGQSRRLPGYAPSGKILTPVPVFRWERGQHLGQNLLSLQLPLYEKIMSLAPDKLHTLIASGDVYIRSEKPLQSIPEADVVCYGLWVDPSLATHHGVFASDRKHPEQLDFMLQKPSLAELESLSKTHLFLMDIGIWLLSDRAVEILMKRSHKESSEELKYYDLYSDFGLALGTHPRIEDEEVNTLSVAILPLPGGEFYHYGTSKELISSTLSVQNKVYDQRRIMHRKVKPNPAMFVQNAVVRIPLCAENADLWIENSHIGPKWKIASRHIITGVPENDWSLAVPAGVCVDVVPMGDKGFVARPYGLDDVFKGDLRDSKTTLTGIPFGEWMSKRGLSYTDLKGRTDDLQAVSVFPMVNSVEELGLVLRWMLSEPELEEGKNIWLRSEHFSADEISAGANLKRLYAQREEFRKGNWKALAVNHEKSVFYQLDLADAAEDFVRLGLDMPELLPEDALQMSRIHNRMLRARILKLDGKDYRPEEQAAFDLLRDGLLDGISNRKSTPKLDVYSDQIVWGRSPVRIDMAGGWTDTPPYSLYSGGNVVNLAIELNGQPPLQVYVKPCKDFHIVLRSIDMGAMEIVSTFDELQDYKKIGSPFSIPKAALSLAGFAPAFSAVSYASLEEQLKDFGAGIEVTLLAAIPAGSGLGTSSILASTVLGAINDFCGLAWDKNEICQRTLVLEQLLTTGGGWQDQYGGVLQGVKLLQTEAGFAQSPLVRWLPDHLFTHPEYKDCHLLYYTGITRTAKGILAEIVSSMFLNSSLHLNLLSEMKAHALDMNEAIQRGSFVEFGRLVGKTWEQNKALDSGTNPPAVEAIIDLIKDYTLGYKLPGAGGGGYLYMVAKDPQAAVRIRKILTENAPNPRARFVEMTLSDKGFQVSRS |  | 4 |
